This is an account of results in patent publication US5464848A, “1,2,4-oxadiazolyl-phenoxyalkylisoxazoles and their use as antiviral agents” (Sterling Winthrop Inc., priority 1993, dated 1995).

In brackets after ≈: the same amount, converted by molar mass.

Test [1] concerns human rhinovirus serotypes, panel B. Nature of the test: MIC50/MIC80 over panel B of 10 human rhinovirus serotypes (HeLa cell CPE). Format: cell-based. The settings on record: for MIC80: minimum concentration required to inhibit 80% of the tested serotypes. How it is done:
(§1) They are useful in inhibiting virus replication in vitro and are primarily active against picornaviruses, including enteroviruses, echovirus and coxsackie virus, especially rhinoviruses. […] The test procedure used was as follows: The MIC values were determined by an automated tissue culture infectious dose 50% (TCID-50) assay. HeLa cells in monoloyers in 96-well cluster plates were infected with a dilution of virus which had been shown empirically to produce 80% to 100% cytopathic effect (CPE) in 3 days in the absence of drug. The compound to be tested was serially diluted through 10, 2-fold cycles and added to the infected cells. After a 3 day incubation at 33° C. and 2.5% carbon dioxide, the cells were fixed with a 5% solution of glutaraldehyde followed by staining with a 0.25% solution of crystal violet in water. The plates were then rinsed, dried, and the amount of stain remaining in the well (a measure of intact cells) was quantitated with an optical density reader. The MIC was determined to be the concentration of compound which protected 50% of the cells from virus-induced CPE relative to an untreated virus control.
(§2) In the above test procedures, representative compounds of formula I were tested against some the serotypes from either a panel of fifteen human rhinovirus (HRV) serotypes, (noted in the table as panel T) namely, HRV-2, -14, -1A, -1B, -6, -21, -22, -15, -25, -30, -50, -67, -89, -86 and -41 or against some of the serotypes from a panel of 10 human rhinovirus serotypes namely HRV-3, -4, -5, -9, -16, -18, -38, -66, -75 and -61, (noted in the table as panel B) and the MIC value, expressed in micrograms per milliliter ([…]), for each rhinovirus serotype was determined for each virus, example 1e is given as an example of the data. Then MIC50 and MIC80 values, which are the minimum concentrations of the compound required to inhibit 50% and 80%, respectively, of the tested serotypes were determined.
(§3) The following Table gives the test results for representative compounds of the invention. The panel of viruses used in the test appears before the MIC80 and MIC50 figure and the number of serotypes which the compound is tested against (N) is indicated after the MIC80 and MIC50 figure.

For test [2], the system named is human rhinovirus (HRV) serotypes, panel T. Nature of the test: MIC50/MIC80 over panel T of fifteen human rhinovirus serotypes (HeLa cell CPE). It is filed as cell-based. The following applies: for MIC50: Human rhinovirus sp., 72 h, minimum concentration required to inhibit 50% of the tested serotypes; for MIC80: minimum concentration required to inhibit 80% of the tested serotypes. How it is done:
as §1, §2, §3

“5-{3-[2,6-Dimethyl-4-(5-difluoromethyl-1,2,4-oxadiazol-3-yl)phenoxy]-propyl}-3-methylisoxazole [Example 49g]” yielded an MIC50 in test [1] (panel B, minimum concentration required to inhibit 50% of the tested serotypes) of 99 µg/mL. The compound further had an MIC80 in test [1] (panel B) of 49.859 µg/mL. In test [2], `Cc1cc(-c2noc(C(F)(F)F)n2)cc(C)c1OCCCc1cc(CCO)no1` [Example 33, 5-{3-[2,6-Dimethyl-4-(5-trifluoromethyl-1,2,4-oxadiazol-3-yl)-phenoxy]propyl}-3-(2-hydroxyethyl)isoxazole] displayed an MIC50 of 0.102 µg/mL (≈ 0.248 µM) and an MIC80 of 0.045 µg/mL (≈ 0.109 µM). In test [2], `Cc1cc(-c2noc(C(F)(F)F)n2)cc(C)c1OCCCc1cc(CO)no1` [Example 34d, 5-{3-[2,6-Dimethyl-4-(5-trifluoromethyl-1,2,4-oxadiazol-3-yl)phenoxy]propyl}-3-(hydroxymethyl) isoxazole] gave an MIC50 of 0.07 µg/mL (≈ 0.176 µM) and an MIC80 of 0.042 µg/mL (≈ 0.106 µM). `Cc1cc(-c2noc(C3CC3)n2)cc(C)c1OCCCc1cc(O)no1` [Example 36d, 5-{3-[4-(5-cyclopropyl-1,2,4-oxadiazol-3-yl)-2,6-dimethylphenoxy]propyl}-3-hydroxyisoxazole]: in test [2], the MIC50 stood at 1.32 µg/mL (≈ 3.72 µM) and the MIC80 was 0.371 µg/mL (≈ 1.04 µM).

Regarding `CCOc1cc(CCCOc2c(C)cc(-c3noc(C4CC4)n3)cc2C)on1` [Example 37, 5-{3-[4-(5-Cyclopropyl-1,2,4-oxadiazol-3-yl)-2,6-dimethyl-phenoxy]propyl}-3-ethoxyisoxazole], in test [2], the MIC50 stood at 0.352 µg/mL (≈ 0.918 µM) and the MIC80 came out at 0.91 µg/mL (≈ 2.37 µM). In test [2], `Cc1cc(CCCOc2c(C)cc(-c3noc(C(N)=O)n3)cc2C)on1` [Example 38, 5-{3-[4-(5-Aminocarbonyl-1,2,4-oxadiazol-3-yl)-2,6-dimethyl-phenoxy]propyl}-3-methylisoxazole] came in with an MIC50 of 99 µg/mL (≈ 278 µM) and an MIC80 of 0.839 µg/mL (≈ 2.35 µM). For `Cc1cc(CCCOc2c(C)cc(-c3noc(C#N)n3)cc2C)on1` [Example 39, 5-{3-[4-(5-Cyano-1,2,4-oxadiazol-3-yl)-2,6-dimethylphenoxy]-propyl}-3-methylisoxazole], in that order: 99 µg/mL (≈ 293 µM) and 1.848 µg/mL (≈ 5.46 µM).

In test [2], `Cc1cc(-c2noc(C3CC3)n2)cc(C)c1OCCCc1cc(CO)no1` [Example 39c, 5-{3-[4-(5-Cyclopropyl-1,2,4-oxadiazol-3-yl)-2,6-dimethylphenoxy]propyl}-3-(hydroxymethyl) isoxazole] gave an MIC50 of 0.187 µg/mL (≈ 0.506 µM) and an MIC80 of 0.035 µg/mL (≈ 0.0947 µM).

For the compound `Cc1cc(CCCOc2c(C)cc(-c3noc(CI)n3)cc2C)on1` [Example 41, 5-{3-[2,6-Dimethyl-4-(5-(iodomethyl)-1,2,4-oxadiazol-3-yl) -phenoxy]propyl}-3-methylisoxazole], in test [2], the MIC50 was 99 µg/mL (≈ 218 µM) and the MIC80 was 99 µg/mL (≈ 218 µM). `Cc1ccc(S(=O)(=O)OCc2nc(-c3cc(C)c(OCCCc4cc(C)no4)c(C)c3)no2)cc1` [Example 42, 5-{3-[2,6-Dimethyl-4-(5-(4-methylphenylsulfonyloxymethyl) -1,2,4-oxadiazol-3-yl)phenoxy]propyl}-3-methylisoxazole]: in test [2], the MIC50 worked out at 99 µg/mL (≈ 199 µM) and the MIC80 is 99 µg/mL (≈ 199 µM). For `Cc1cc(CCCOc2c(C)cc(-c3noc(CC(F)(F)F)n3)cc2C)on1` [Example 43, 5-{3-[2,6-Dimethyl-4-(5-(2,2,2-trifluoroethyl)-1,2,4-oxadiazol-3-yl)phenoxy]propyl}-3-methylisoxazole], in test [2], the MIC50 turned out to be 99 µg/mL (≈ 250 µM) and the MIC80 is 99 µg/mL (≈ 250 µM). On to `Cc1cc(-c2noc(C3CC3)n2)cc(C)c1OCCCc1cc(OCCO)no1` [Example 44, 5-{3-[4-(5-Cyclopropyl-1,2,4-oxadiazol-3-yl)-2,6-dimethylphenoxy]propyl}-3-(2-hydroxyethoxy)isoxazole], for which the MIC80 in test [2] was 0.385 µg/mL (≈ 0.964 µM). In test [2], `Cc1cc(CCCOc2c(C)cc(-c3nc(C4CC4)no3)cc2C)on1` [Example 45l, 5-{3-[2,6-Dimethyl-4,(5-cyclopropyl-1,2,4-oxadiazol-3-yl)phenoxy]propyl}-3-methylisoxazole] displayed an MIC50 of 0.558 µg/mL (≈ 1.58 µM) and an MIC80 of 0.153 µg/mL (≈ 0.433 µM). Take `Cc1cc(CCCOc2c(C)cc(-c3nc(C(F)(F)F)no3)cc2C)on1` [Example 46c]: in test [2], the MIC50 came out at 0.197 µg/mL (≈ 0.517 µM) and the MIC80 was determined as 0.1 µg/mL (≈ 0.262 µM). In test [2], `Cc1cc(CCCOc2c(C)cc(-c3nc(N)no3)cc2C)on1` [Example 47] had an MIC50 of 5.14 µg/mL (≈ 15.7 µM) and an MIC80 of 0.057 µg/mL (≈ 0.174 µM). In test [2], `Cc1cc(CCCOc2c(C)cc(-c3noc(C(F)F)n3)cc2Cl)on1` [Example 49d, 5-{3-[2,-Methyl-6-Chloro-4-(5-difluoromethyl-1,2,4-oxadiazol-3-yl)phenoxy]-propyl}-3-methylisoxazole] returned an MIC50 of 99 µg/mL (≈ 258 µM) and an MIC80 of 99 µg/mL (≈ 258 µM). `Cc1cc(CCCOc2c(C)cc(-c3noc(C(F)(F)Cl)n3)cc2C)on1` [Example 54a, 5-{3-[2,6-Dimethyl-4-(5-difluorochloromehyl-1,2,4-oxadiazol-3-yl)phenoxy]-propyl}-3-methylisoxazole] gave an MIC50 in test [1] (Human rhinovirus sp., 72 h) of 49.6 µg/mL (≈ 125 µM). The MIC80 in test [1] (panel B) was determined as 0.016 µg/mL (≈ 0.0402 µM). As for `Cc1cc(CCCOc2ccc(-c3noc(C4CCC4)n3)cc2)on1` [Example 54e, 5-{3-[4-(5-cyclobutyl-1,2,4-oxadiazol-3-yl)phenoxy]propyl}-3-methylisoxazole], in test [2], the MIC50 was determined as 99 µg/mL (≈ 292 µM) and the MIC80 stood at 0.1045 µg/mL (≈ 0.308 µM). On to `CCOC(=O)c1cc(CCCOc2c(C)cc(-c3noc(C(F)(F)F)n3)cc2C)on1` [Example 56d, 5-{3-[2,6-Dimethyl-4-(5-trifluoromethyl-1,2,4-oxadiazol-3-yl)phenoxy]propyl}-3-(ethoxycarbonyl)isoxazole], for which, in test [2], the MIC50 turned out to be 1.47 µg/mL (≈ 3.33 µM) and the MIC80 amounted to 0.634 µg/mL (≈ 1.44 µM).

On to `Cc1cc(-c2noc(C(F)(F)F)n2)cc(C)c1OCCCc1cc(C(=O)O)no1` [Example 56e], for which, in test [2], the MIC50 is 99 µg/mL (≈ 241 µM) and the MIC80 worked out at 5.304 µg/mL (≈ 12.9 µM).

Consider `Cc1cc(-c2noc(C(F)(F)F)n2)cc(C)c1OCCCc1onc(C)c1Br` [Example 57], for which, in test [1] (Human rhinovirus sp., 72 h), the MIC50 was found to be 99 µg/mL (≈ 215 µM). The compound also yielded an MIC80 in test [1] (panel B) of 99 µg/mL (≈ 215 µM). Take `CSc1nc(-c2cc(C)c(OCCCc3cc(C)no3)c(C)c2)no1` [Example 58d, 5-{3-[2,6-dimethyl-4-(5-methylthio-1,2,4-oxadiazol-3-yl)phenoxy]-propyl}-3-methylisoxazole]: in test [2], the MIC50 came to 99 µg/mL (≈ 275 µM) and the MIC80 is 99 µg/mL (≈ 275 µM). In turn, `Cc1cc(CCCOc2c(F)cc(-c3noc(C(F)(F)F)n3)cc2I)on1` [Example 60e, 5-{3-[2-Fluoro-6-iodo-4-(5-trifluoromethyl-1,2,4-oxadiazol-3-yl)phenoxy]propyl}-3-methylisoxazole] returned an MIC50 in test [1] (Human rhinovirus sp., 72 h) of 99 µg/mL (≈ 199 µM). The same compound registered an MIC80 in test [1] (panel B) of 0.4145 µg/mL (≈ 0.834 µM).

In test [1] (Human rhinovirus sp., 72 h), `Cc1cc(CCCOc2c(C)cc(-c3noc(C(F)(F)F)n3)cc2F)on1` [Example 60h, 5-{3-[2-Fluoro-6-methyl-4-(5-trifluoromethyl-1,2,4-oxadiazol-3-yl)phenoxy]propyl}-3-methylisoxazole] returned an MIC50 of 0.328 µg/mL (≈ 0.851 µM). Further, in test [1] (panel B), the MIC80 stood at 0.0315 µg/mL (≈ 0.0818 µM).

In test [2], `Cc1cc(CCCOc2c(Cl)cc(-c3noc(C(F)(F)F)n3)cc2C#N)on1` [Example 61e, 5-{3-[4-(5-Trifluoromethyl-1,2,4-oxadiazol-3-yl)2-cyano-6-chlorophenoxy]-propyl}-3-methylisoxazole] gave an MIC50 of 0.706 µg/mL (≈ 1.71 µM) and an MIC80 of 0.3355 µg/mL (≈ 0.813 µM). Compound `Cc1cc(CCCOc2c(C)cc(-c3noc(C(F)(F)F)n3)cc2Cl)on1` [Example 63d, 5-{3-[4-(5-Trifluoromethyl-1,2,4-oxadiazol-3-yl)2-chloro-6-methylphenoxy]propyl}-3-methylisoxazole] had an MIC50 in test [1] (Human rhinovirus sp., 72 h) of 0.304 µg/mL (≈ 0.757 µM). Moreover, the MIC80 in test [1] (panel B) came out at 0.13 µg/mL (≈ 0.324 µM).
